Tests used:
Type in all cases: in vivo
[1] = system: Arabidopsis thaliana; experiment: HTPS pre-emergence on dicot model plants; conditions: green area (RGB)
Description: A 96 well plate was used as a stock plate for preparing application solutions for 8 repeats. Each row contained different concentrations per chemical. Maximal concentration for application was 1.5 kg/ha and dilution factor is 2.5. Chemical application was performed one day after thinning out in a chemical hood. 5 μL applied on first two true leaves in each well using 12 channel pipettes. Data collection: RGB (red, green, blue) data for green area per well was documented using camera. Data is collected at a few time points during the experiment: one day after thinning and before chemical application, two-, six- or nine-days post application. During the last two documentations, visual phenotyping was performed. Data analysis: Given RGB results and visual phenotype scores, a student t-test conducted to compare between treatment and control performance for continuous data (RGB) and Fisher exact test to analyze the non-continuous data (phenotypic scores). […]
(§1) Compounds 101, 110, 112, 119, 124, 125, 146, 154, 157, 172, 170, 169, 112, and 166 were applied in either or both pre- and post-emergence mode to either or both monocot and dicot model plants, following the methods described above. The compounds were applied as a gradient of concentrations as listed above, from which the ED50 was calculated.

[2] = system: Arabidopsis thaliana; experiment: HTPS post-emergence on miniature dicot model plants; conditions: green area (RGB), maximal concentration 1.5 kg/ha, read-out: Max inhibition (%)
Description: Arabidopsis thaliana seeds were sown in 96 well plates filled with irrigated Sweet sand (10%>clay) that is washed from salts and minerals using tap water. 5-10 seeds were sown in the center of each well. 7-8 days post sowing, at 2 true leaves stage, thinning out was performed to ensure that compound application is done on a single plant per well. The plates were placed in a controlled greenhouse in a random order inside a bath which allows flooding irrigation with tap water supplemented with a fertilizer. Applied compounds were dissolved into a final solution of 50% acetone, 49.9% DDW, 0.1% tween-20. A 96 well plate was used as a stock plate for preparing application solutions for 8 repeats. Each row contained different concentrations per chemical. Maximal concentration for application was 1.5 kg/ha and dilution factor is 2.5. Chemical application was performed one day after thinning out in a chemical hood. 5 μL applied on first two true leaves in each well using 12 channel pipettes. Data collection: RGB (red, green, blue) data for green area per well was documented using camera. Data is collected at a few time points during the experiment: one day after thinning and before chemical application, two-, six- or nine-days post application. During the last two documentations, visual phenotyping was performed. Data analysis: Given RGB results and visual phenotype scores, a student t-test conducted to compare between treatment and control performance for continuous data (RGB) and Fisher exact test to analyze the non-continuous data (phenotypic scores). Dose-Response curves are generated for each treatment to infer ED50 and max. inhibition parameters, using treatment's log concentration range as the […] variable and normalized green area. Plate imaging performed at 11 and 18 DAA. RGB data for green area per well was documented and used to extract % inhibition. Dose-Response curves were built for each treatment to infer EC50, EC75 and EC90 parameters, using treatment's log concentration range as the independent variable and normalized green area as the dependent variable. Treatments were compared to controls performance given RGB results and using student's t-test (p-val≤0.05). Compounds 101, 110, 112, 119, 124, 125, 146, 154, 157, 172, 170, 169, 112, and 166 were applied in either or both pre- and post-emergence mode to either or both monocot and dicot model plants, following the methods described above. The compounds were applied as a gradient of concentrations as listed above, from which the ED50 was calculated.

[3] = system: Eragrostis teff; experiment: HTPS pre-emergence on monocot model plants; conditions: green area (RGB)
Description: A 96 well plate was used as a stock plate for preparing application solutions for 8 repeats. Each row contained different concentrations per chemical. Maximal concentration for application was 1.5 kg/ha and dilution factor is 2.5. Chemical application was performed one day after thinning out in a chemical hood. 5 μL applied on first two true leaves in each well using 12 channel pipettes. Data collection: RGB (red, green, blue) data for green area per well was documented using camera. Data is collected at a few time points during the experiment: one day after thinning and before chemical application, two-, six- or nine-days post application. During the last two documentations, visual phenotyping was performed. Data analysis: Given RGB results and visual phenotype scores, a student t-test conducted to compare between treatment and control performance for continuous data (RGB) and Fisher exact test to analyze the non-continuous data (phenotypic scores). Dose-Response curves are generated for each treatment to infer ED50 and max. inhibition parameters, using treatment's log concentration range as the […] variable and normalized green area.
These experiments are conducted similarly except that either Arabidopsis thaliana or Eragrostis teff seeds were sowed (5-10 or 5-7, respectively), plant thinning out was not performed, compound dissolved into a final solution of 50% acetone, 49.9% DDW, compound application was done at 30 μL volume per well directly on sowed soil before plant emergence and data was collected 10 or 7 days after chemical application on dicot or monocot plants, respectively.
Plate imaging performed at 11 and 18 DAA. RGB data for green area per well was documented and used to extract % inhibition. […]
as §1

## NC1(C/C=C/CC(=O)O)CC1 [Compound 112]
[1]
  Max inhibition (%): 100%
[2]
  inhibition at up to 1500 g/ha: 87.5%
[3]
  Max inhibition (%): 51%

From patent US20250212875A1, “PESTICIDAL AND HERBICIDAL COMPOUNDS AND METHODS OF USE THEREOF” (AG PLENUS LTD, priority 2022, published 2025)
